# Assay results published in patent publication US20080221086A1, “Novel Inhibitors of Glutaminyl Cyclase” (PROBIODRUG AG, priority 2006, published 2008).
# Biological target: hQC (Homo sapiens, UniProt Q16769)
# Assay: Fluorometric assay of glutaminyl cyclase (QC) inhibition, H-Gln-βNA or H-Gln-AMC substrate
# Format: biochemical
# Settings: compound from preparative synthesis, purified by chromatography; fluorescent assay; read-out: IC50 hQC
# In short: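 Fluorometric coupled assays at 30° C in Tris/HCl pH 8.0 with EDTA and pyroglutamyl aminopeptidase used either 0.2 mM H-Gln-βNA (320/410 nm) or H-Gln-AMC (380/460 nm), started by QC. Screening used 4 mM inhibitor at substrate 1 KM. Ki came from fitting progress curves to competitive inhibition.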
# Sequence of hQC (Q16769 29-361): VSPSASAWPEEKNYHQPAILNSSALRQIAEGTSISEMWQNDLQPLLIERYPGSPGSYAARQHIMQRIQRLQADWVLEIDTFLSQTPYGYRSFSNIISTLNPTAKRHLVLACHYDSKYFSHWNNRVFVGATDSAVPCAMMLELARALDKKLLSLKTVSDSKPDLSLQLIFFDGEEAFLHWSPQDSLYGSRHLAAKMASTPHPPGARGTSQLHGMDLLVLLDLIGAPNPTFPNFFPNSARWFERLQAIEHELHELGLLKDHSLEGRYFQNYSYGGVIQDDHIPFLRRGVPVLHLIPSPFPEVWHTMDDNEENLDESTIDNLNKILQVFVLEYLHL
row,IC50 [µM],SMILES
1,0.626,"O=C1N/C(=N\CCc2c[nH]c3ccccc23)C(c2cccc(F)c2F)N1CCCn1ccnc1 (stereo not drawn) [Compound 52, 5-(2,3-Difluoro-phenyl)-1-(3-imidazol-1-yl-propyl)-4-(2-(1H-indol-3-yl)-ethylimino)-imidazolidin-2-one]"
2,0.997,"CC1=CC(C)C(C2/C(=N/C(C)C)NC(=O)N2c2ccc3[nH]cnc3c2)CC1 (stereo not drawn) [Compound 254, 1-(1H-Benzoimidazol-5-yl)-5-(2,4-dimethyl-cyclohex-3-enyl)-4-(isopropylimino)-imidazolidin-2-one]"
3,0.0377,"O=C1N/C(=N\C2CCCC2)C(c2ccc(Cl)cc2)N1c1ccc2[nH]cnc2c1 (stereo not drawn) [Compound 211, 1-(1H-Benzoimidazol-5-yl)-5-(4-chloro-phenyl)-4-cyclopentylimino-imidazolidin-2-one]"

# Same assay, conditions: read-out: IC50
row,IC50 [µM],SMILES
1,7.6,"O=C1N/C(=N/CCc2cccs2)C(C2CCC=CO2)N1CCCn1ccnc1 (stereo not drawn) [Compound 39, 5-(3,4-Dihydro-2H-pyran-2-yl)-1-(3-imidazol-1-yl-propyl)-4-2-thiophen-2-yl-ethylimino-imidazolidin-2-one]"
2,0.004,"C/N=C1/NC(=O)N(c2ccc3[nH]cnc3c2)C1c1ccc2ccccc2c1 (stereo not drawn) [Compound 159, 1-(1H-Benzoimidazol-5-yl)-4-methylimino-5-naphthalen-2-yl-imidazolidin-2-one]"
3,7.6,"O=C1N/C(=N/CCc2cccs2)C(c2ccccc2)N1CCCn1ccnc1 (stereo not drawn) [Compound 38, 1-(3-Imidazol-1-yl-propyl)-5-phenyl-4-2-thiophen-2-yl-ethylimino-imidazolidin-2-one]"
4,2.2,"CC1=CC(C)C(C2/C(=N/c3ccc4c(c3)OCCO4)NC(=O)N2c2ccc3[nH]cnc3c2)CC1 (stereo not drawn) [Compound 259, 1-(1H-Benzoimidazol-5-yl)-4-2,3-dihydro-benzo1,4dioxin-6-ylimino-5-(2,4-dimethyl-cyclohex-3-enyl)-imidazolidin-2-one]"
5,7.6,"CCc1ccccc1/N=C1\NC(=O)N(c2ccc3[nH]cnc3c2)C1c1ccccc1 (stereo not drawn) [Compound 245, 1-(1H-Benzoimidazol-5-yl)-4-2-ethyl-phenylimino-5-phenyl-imidazolidin-2-one]"
6,0.004,"O=C1CCCN1CCC/N=C1/NC(=O)N(c2ccc3[nH]cnc3c2)C1c1ccc2[nH]ccc2c1 (stereo not drawn) [Compound 289, 1-(1H-benzoimidazol-5-yl)-5-(1H-indol-5-yl)-4-3-(2-oxo-pyrrolidin-1-yl)-propylimino-imidazolidin-2-one]"
7,4,"Cc1cccc(C2/C(=N\Cn3nnc4ccccc43)NC(=O)N2c2ccc3nc[nH]c3c2)n1 (stereo not drawn) [Compound 189, 1-(3H-Benzoimidazol-5-yl)-4-benzotriazol-1-ylmethylimino-5-(6-methyl-pyridin-2-yl)-imidazolidin-2-one]"
8,7.6,"Fc1ccc(/N=C2\NC(=S)N(c3ccc4[nH]cnc4c3)C2c2ccnc3ccccc23)cc1 (stereo not drawn) [Compound 202, 1-(1H-Benzoimidazol-5-yl)-4-4-fluoro-phenylimino-5-quinolin-4-yl-imidazolidine-2-thione]"
9,4.9,"O=C(C/N=C1/NC(=O)N(CCCn2ccnc2)C1c1cc(F)cc(F)c1)N1CCc2ccccc2C1 (stereo not drawn) [Compound 69, 5-(3,5-Difluoro-phenyl)-4-2-(3,4-dihydro-1H-isoquinolin-2-yl)-2-oxo-ethylimino-1-(3-imidazol-1-yl-propyl)-imidazolidin-2-one]"
10,0.4,"O=C1CCCN1CCC/N=C1/NC(=O)N(c2ccc3[nH]cnc3c2)C1c1cc2ccccc2s1 (stereo not drawn) [Compound 166, 5-Benzobthiophen-2-yl-1-(1H-benzoimidazol-5-yl)-4-3-(2-oxo-pyrrolidin-1-yl)-propylimino-imidazolidin-2-one]"
11,8.6,"O=C1N/C(=N/C2CC2)C(C2CCC=CO2)N1CCCn1ccnc1 (stereo not drawn) [Compound 1, 4-Cyclopropylimino-5-(3,4-dihydro-2H-pyran-2-yl)-1-(3-imidazol-1-yl-propyl)-imidazolidin-2-one]"
12,9.1,"CCCCC1/C(=N\C2CCCCC2)NC(=O)N1CCCn1ccnc1 (stereo not drawn) [Compound 7, 5-Butyl-4-cyclohexylimino-1-(3-imidazol-1-yl-propyl)-imidazolidin-2-one]"
13,9.4,"CCCCC1C(=Nc2ccc(Oc3ccccc3)cc2)NC(=O)N1CCCn1ccnc1 (stereo not drawn) [Compound 103, 5-Butyl-1-(3-imidazol-1-yl-propyl)-4-4-phenoxy-phenylimino-imidazolidin-2-one]"
14,0.004,"O=C1N/C(=N\C2CCCCCC2)C(c2cc(Br)cc(Br)c2)N1c1ccc2nc[nH]c2c1 (stereo not drawn) [Compound 301, 1-(3H-Benzoimidazol-5-yl)-4-cycloheptylimino-5-(3,5-dibromo-phenyl)-imidazolidin-2-one]"
15,7.6,"COC(=O)C(C)/N=C1\NC(=O)N(c2ccc3[nH]cnc3c2)C1C1CCC(C)=CC1C (stereo not drawn) [Compound 206, Methyl 2-(1-(1H-benzo[d]imidazol-5-yl)-5-(2,4-dimethylcyclohex-3-enyl)-2-oxoimidazolidin-4-ylideneamino)propanoate]"
16,5.8,"O=C1N/C(=N\C(c2ccccc2)c2ccccc2)C(c2cccc(F)c2)N1CCCn1ccnc1 (stereo not drawn) [Compound 88, 4-Benzhydrylimino-5-(3-fluoro-phenyl)-1-(3-imidazol-1-yl-propyl)-imidazolidin-2-one]"
17,2.2,"O=C1N/C(=N\CCc2c[nH]c3ccccc23)C(c2cccc(F)c2F)N1CCCn1ccnc1 (stereo not drawn) [Compound 52, 5-(2,3-Difluoro-phenyl)-1-(3-imidazol-1-yl-propyl)-4-(2-(1H-indol-3-yl)-ethylimino)-imidazolidin-2-one]"
18,6.7,"O=C(C/N=C1\NC(=O)N(c2ccc3[nH]cnc3c2)C1c1ccnc2ccccc12)N1CCC(O)CC1 (stereo not drawn) [Compound 343, 1-(1H-Benzoimidazol-5-yl)-4-2-(4-hydroxy-piperidin-1-yl)-2-oxo-ethylimino-5-quinolin-4-yl-imidazolidin-2-one]"

row,IC50 [µM],SMILES
1,5.8,"O=C(C/N=C1\NC(=O)N(CCCn2ccnc2)C1c1ccccc1F)N1CCc2ccccc2C1 (stereo not drawn) [Compound 76, 4-2-(3,4-Dihydro-1H-isoquinolin-2-yl)-2-oxo-ethylimino-5-(2-fluoro-phenyl)-1-(3-imidazol-1-yl-propyl)-imidazolidin-2-one]"
2,9.4,"O=C1N/C(=N\C(c2ccccc2)c2ccccc2)C(c2ccc(O)cc2)N1CCCn1ccnc1 (stereo not drawn) [Compound 89, 4-Benzhydrylimino-5-(4-hydroxy-phenyl)-1-(3-imidazol-1-yl-propyl)-imidazolidin-2-one]"
3,0.004,"CC1=CC(C)C(C2/C(=N/C(C)C)NC(=O)N2c2ccc3[nH]cnc3c2)CC1 (stereo not drawn) [Compound 254, 1-(1H-Benzoimidazol-5-yl)-5-(2,4-dimethyl-cyclohex-3-enyl)-4-(isopropylimino)-imidazolidin-2-one]"
4,0.004,"O=C1N/C(=N\C(Cc2ccccc2)c2ccccc2)C(c2cccc(Br)c2)N1c1ccc2[nH]cnc2c1 (stereo not drawn) [Compound 338, 1-(1H-Benzoimidazol-5-yl)-5-(3-bromo-phenyl)-4-1,2-diphenyl-ethylimino-imidazolidin-2-one]"
5,1.3,"O=C1N/C(=N/CCN2CCOCC2)C(c2cccc(Br)c2)N1c1ccc2nc[nH]c2c1 (stereo not drawn) [Compound 341, 1-(3H-Benzoimidazol-5-yl)-5-(3-bromo-phenyl)-4-2-morpholin-4-yl-ethylimino-imidazolidin-2-one]"
6,6.7,"O=C1N/C(=N/Cc2cccnc2)C(c2ccc3ccccc3c2)N1c1ccc2[nH]cnc2c1 (stereo not drawn) [Compound 221, 1-(1H-Benzoimidazol-5-yl)-5-naphthalen-2-yl-4-pyridin-3-ylmethylimino-imidazolidin-2-one]"
7,0.004,"O=C1N/C(=N\C2CCCC2)C(c2ccc(Cl)cc2)N1c1ccc2[nH]cnc2c1 (stereo not drawn) [Compound 211, 1-(1H-Benzoimidazol-5-yl)-5-(4-chloro-phenyl)-4-cyclopentylimino-imidazolidin-2-one]"
8,9.4,"C/N=C1/NC(=S)N(c2ccc3[nH]cnc3c2)C1c1ccc(C)cc1 (stereo not drawn) [Compound 141, 1-(1H-Benzoimidazol-5-yl)-4-methylimino-5-p-tolyl-imidazolidine-2-thione]"
9,4.9,"CC1=CC(C)C(C2/C(=N/C3CCc4ccccc43)NC(=O)N2c2ccc3[nH]cnc3c2)CC1 (stereo not drawn) [Compound 193, 1-(1H-Benzoimidazol-5-yl)-5-(2,4-dimethyl-cyclohex-3-enyl)-4-indan-1-ylimino-imidazolidin-2-one]"
10,5.8,"COC(=O)C(C)/N=C1\NC(=S)N(c2ccc3[nH]cnc3c2)C1c1ccc(C)cc1 (stereo not drawn) [Compound 249, Methyl 2-(1-(1H-benzo[d]imidazol-5-yl)-2-thioxo-5-p-tolylimidazolidin-4-ylideneamino)propanoate]"
11,3.1,"S=C1N/C(=N\C2CCCC2)C(c2ccc(N3CCCC3)cc2)N1c1ccc2[nH]cnc2c1 (stereo not drawn) [Compound 210, 1-(1H-Benzoimidazol-5-yl)-4-cyclopentylimino-5-(4-pyrrolidin-1-yl-phenyl)-imidazolidine-2-thione]"
12,6.7,"O=C1N/C(=N\CCC(c2ccccc2)c2ccccc2)C(c2cc(F)cc(F)c2)N1CCCn1ccnc1 (stereo not drawn) [Compound 108, 5-(3,5-Dihydro-phenyl)-4-3,3-diphenyl-propylimino-1-(3-imidazol-1-yl-propyl)-imidazolidin-2-one]"
13,8.5,"S=C1N/C(=N\C2CCCC2)C(c2ccc(Cl)cc2)N1c1ccc2[nH]cnc2c1 (stereo not drawn) [Compound 272, 1-(1H-Benzoimidazol-5-yl)-5-(4-chloro-phenyl)-4-cyclopentylimino-imidazolidine-2-thione]"
14,2.2,"CCc1ccccc1C1/C(=N/C2CCCc3ccccc32)NC(=O)N1c1ccc2[nH]cnc2c1 (stereo not drawn) [Compound 160, 1-(1H-Benzoimidazol-5-yl)-5-(2-ethyl-phenyl)-4-1,2,3,4-tetrahydro-naphthalen-1-ylimino-imidazolidin-2-one]"
15,4,O=C1N/C(=N\Cc2ccc(Cl)cc2)C(c2ccccc2F)N1CCCn1ccnc1 (stereo not drawn) [Compound 23]
16,4,"CC1=CC(C)C(C2/C(=N/CCCN3CCCC3=O)NC(=O)N2c2ccc3[nH]cnc3c2)CC1 (stereo not drawn) [Compound 275, 1-(1H-Benzoimidazol-5-yl)-5-(2,4-dimethyl-cyclohex-3-enyl)-4-3-(2-oxo-pyrrolidin-1-yl)-propylimino-imidazolidin-2-one]"
17,7.2,"O=C1N/C(=N\C2CCCCC2)C(c2ccccc2Cl)N1CCCn1ccnc1 (stereo not drawn) [Compound 6, 5-(2-Chloro-phenyl)-4-cyclohexylimino-1-(3-imidazol-1-yl-propyl)-imidazolidin-2-one]"
18,6.7,"O=C1N/C(=N\CCC(c2ccccc2)c2ccccc2)C(c2ccccc2Cl)N1CCCn1ccnc1 (stereo not drawn) [Compound 110, 5-(2-Chloro-phenyl)-4-3,3-diphenyl-propylimino-1-(3-imidazol-1-yl-propyl)-imidazolidin-2-one]"
